Experimental data from publication PMC5641445 (Journal of medicinal chemistry, 2017).
Counter-ions that a name gives are not always drawn.

What was measured:
mouse cardiomyocytes [1] = conditions: cited from earlier work
[2] = Metabolic stability in mouse liver microsomes; type: in vitro ADME; conditions: polar carboxamides on the paroxetine template
bovine GRK5 = bovine GRK5 (Bos taurus, UniProt P43249); test: GRK5 kinase inhibition; conditions: relative to paroxetine
mouse cardiomyocytes [3] = type: cell-based; conditions: at 0.5 μM or 1 μM
[4] = biological target: mouse PKA catalytic subunits (Mus musculus, UniProt P05132); test: PKA inhibition, ADP-Glo Kinase Assay
[5] = Abbreviated pharmacokinetic study in mice after IP administration
GRK2 = conditions: read-out: GRK2 IC50; Takeda compounds; cited from earlier work
[6] = female, CD-1, mouse, plasma, ip, 10 mg/kg

bovine GRK5, sequence (P43249 whole entry): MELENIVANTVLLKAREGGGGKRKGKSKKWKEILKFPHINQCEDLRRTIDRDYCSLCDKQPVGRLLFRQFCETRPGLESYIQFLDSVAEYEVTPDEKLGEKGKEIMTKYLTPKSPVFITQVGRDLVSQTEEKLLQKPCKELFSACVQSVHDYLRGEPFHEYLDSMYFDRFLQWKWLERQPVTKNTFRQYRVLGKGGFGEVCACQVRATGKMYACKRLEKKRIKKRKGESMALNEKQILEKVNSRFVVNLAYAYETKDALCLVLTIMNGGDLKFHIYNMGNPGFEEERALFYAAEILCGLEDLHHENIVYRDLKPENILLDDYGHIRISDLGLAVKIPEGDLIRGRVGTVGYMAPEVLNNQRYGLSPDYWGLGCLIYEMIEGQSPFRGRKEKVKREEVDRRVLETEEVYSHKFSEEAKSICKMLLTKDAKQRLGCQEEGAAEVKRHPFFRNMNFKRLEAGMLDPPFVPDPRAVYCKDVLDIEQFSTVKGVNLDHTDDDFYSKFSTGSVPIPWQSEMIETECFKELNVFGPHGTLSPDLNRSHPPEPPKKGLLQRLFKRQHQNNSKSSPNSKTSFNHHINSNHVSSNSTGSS

CC1=C(C(=O)Nc2ccc3[nH]ncc3c2)C(c2ccc(F)cc2)NC(=O)N1 (stereo not drawn) [compound 3]
minimum dose needed to produce a significant contractility response (mouse cardiomyocytes [1]): 1 µM

O=C(NCc1ccccn1)c1cc([C@@H]2CCNC[C@H]2COc2ccc3c(c2)OCO3)ccc1F [14ak, 5-((3S,4R)-3-((benzo[d][1,3]dioxol-5-yloxy)methyl)piperidin-4-yl)-2-fluoro-N-(pyridin-2-ylmethyl)benzamide hydrochloride]
metabolic stability in MLM, in words [2]: substantial metabolic instability | increase in GRK5 potency (bovine GRK5): 5 fold | increase in contractility, in words (mouse cardiomyocytes [3]): did not show a significant increase in contractility | IC50 [4]: > 100000 nM

COc1cccc(OC)c1CNC(=O)c1cc(C2NC(=O)NC(C)=C2C(=O)Nc2ccc3[nH]ncc3c2)ccc1F (stereo not drawn) [compound 4]
lower concentration than paroxetine enhancing myocardial contractility (mouse cardiomyocytes [1]): 20 fold

Cn1c(CNc2cccc(C(=O)NCc3ccccc3C(F)(F)F)c2)nnc1-c1ccncc1 [compound 2, reference compound]
half-life in vivo ([5]; CD-1 mice, IP 10 mg/kg, estimated from four time points): too low to quantify | concentration at 30 min [5, 6]: 1830 nM | concentration at 2 h [5, 6]: 32 nM | concentration at 4 h [5, 6]: 5 nM | concentration at 7 h [5, 6]: 6 nM | IC50 (GRK2): 30 nM
